Data as given in patent EP0312291A2, “Di-or tripeptide renin inhibitors containing lactam conformational restriction in ACHPA” (Merck & Co., Inc., priority 1987, dated 1989).

target: T1, human plasma renin (Homo sapiens, UniProt P00797); assay: Inhibition of human plasma renin, in vitro method of Boger et al., J. Med. Chem. (1985) 28, 1779; format: biochemical
T1 construct: from tissue; host or cells: human plasma
T1 sequence (P00797 67-406): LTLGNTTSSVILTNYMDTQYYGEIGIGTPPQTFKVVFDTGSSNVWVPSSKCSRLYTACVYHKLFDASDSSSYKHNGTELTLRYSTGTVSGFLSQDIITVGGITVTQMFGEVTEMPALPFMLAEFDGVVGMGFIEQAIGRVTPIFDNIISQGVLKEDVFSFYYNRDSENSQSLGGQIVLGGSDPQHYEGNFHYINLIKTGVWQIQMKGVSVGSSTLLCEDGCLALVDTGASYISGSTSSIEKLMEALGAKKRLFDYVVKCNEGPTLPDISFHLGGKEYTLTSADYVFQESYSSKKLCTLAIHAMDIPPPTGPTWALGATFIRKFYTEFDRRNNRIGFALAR
Experimental: Inhibition of human plasma renin was assayed using the in vitro method described by Boger, et. al., J. Med. Chem. (1985) 28, 1779.

Compound	IC50
Boc-Phe-His-(ACHP)-4-Methyl-3-Morpholinone [Example 3B]	0.031 µM
CN1CCC[C@@H]([C@H](O)[C@H](CC2CCCCC2)NC(=O)[C@H](Cc2c[nH]cn2)NC(=O)[C@H](Cc2ccccc2)NC(=O)OC(C)(C)C)C1=O [Example 3A, Boc-Phe-His-(ACHP)-1-Methyl-2-Piperidinone]	0.047 µM
CN1CCCC[C@@H]([C@H](O)[C@H](CC2CCCCC2)NC(=O)[C@H](Cc2c[nH]cn2)NC(=O)[C@H](Cc2ccccc2)NC(=O)OC(C)(C)C)C1=O [Example 3C, Boc-Phe-His-(ACHP)-1-Methylcaprolactam]	0.203 µM
